The results in this text go back to patent US8129371B2, “Thienopyrimidine and pyrazolopyrimidine compounds and their use as mTOR kinase and PI3 kinase inhibitors” (Wyeth LLC, priority 2007, dated 2012).

Assay [1] concerns the target T1, Human mTOR (FLAG-TOR) (Homo sapiens, UniProt P42345).
T1 construct: FLAG
Briefly: Human mTOR kinase assay with purified enzyme, DELFIA format. In kind it is biochemical. Particulars: purified human mTOR enzyme, DELFIA format. The gist of the method:
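Purified FLAG-mTOR in HEPES pH 7.4 buffer with 10 mM MnCl2 was preincubated with inhibitor and reacted 2 h at room temperature with His6-S6K substrate, then stopped with EDTA/EGTA. Phospho-T389 S6K detected by DELFIA with Eu-labelled antibody (40 ng/mL) after plate capture; inhibition computed from signal.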

For assay [2], the target named is T2, PI3K (Homo sapiens, UniProt P42336).
T2 construct: PI3 Kinase α IC50; other: PI3 Kinase α; other: PI3 Kinase α isoform, fluorescence polarization
T2 sequence (P42336 whole entry, canonical isoform): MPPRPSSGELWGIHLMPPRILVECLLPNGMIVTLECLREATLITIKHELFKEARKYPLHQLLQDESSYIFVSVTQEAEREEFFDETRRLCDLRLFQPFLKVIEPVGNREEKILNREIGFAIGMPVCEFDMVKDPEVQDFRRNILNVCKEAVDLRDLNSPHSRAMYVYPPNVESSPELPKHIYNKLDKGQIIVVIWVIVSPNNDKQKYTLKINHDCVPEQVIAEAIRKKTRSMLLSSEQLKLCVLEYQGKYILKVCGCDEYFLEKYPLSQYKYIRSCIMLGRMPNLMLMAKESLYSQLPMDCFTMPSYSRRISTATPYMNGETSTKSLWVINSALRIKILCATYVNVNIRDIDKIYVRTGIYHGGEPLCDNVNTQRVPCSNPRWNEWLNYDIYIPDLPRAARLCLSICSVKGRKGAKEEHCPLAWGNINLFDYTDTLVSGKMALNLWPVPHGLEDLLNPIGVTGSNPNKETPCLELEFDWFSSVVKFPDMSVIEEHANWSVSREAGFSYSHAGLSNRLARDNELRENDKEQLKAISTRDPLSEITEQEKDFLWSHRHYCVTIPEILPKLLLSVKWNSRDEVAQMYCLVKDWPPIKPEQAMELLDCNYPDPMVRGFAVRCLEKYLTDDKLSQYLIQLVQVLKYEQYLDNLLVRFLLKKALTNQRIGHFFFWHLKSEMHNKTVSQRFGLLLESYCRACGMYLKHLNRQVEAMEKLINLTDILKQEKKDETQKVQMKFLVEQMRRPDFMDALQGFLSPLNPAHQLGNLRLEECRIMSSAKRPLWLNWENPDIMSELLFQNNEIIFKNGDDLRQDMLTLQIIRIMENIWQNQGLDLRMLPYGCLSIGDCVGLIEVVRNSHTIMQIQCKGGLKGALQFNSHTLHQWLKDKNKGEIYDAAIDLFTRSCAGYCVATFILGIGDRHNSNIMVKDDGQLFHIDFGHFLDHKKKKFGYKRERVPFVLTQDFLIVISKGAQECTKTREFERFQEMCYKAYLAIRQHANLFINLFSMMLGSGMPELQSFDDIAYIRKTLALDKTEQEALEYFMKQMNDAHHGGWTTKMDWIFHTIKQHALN
Briefly: Fluorescence polarization assay for PI3K. In kind it is biochemical. Particulars: PI3 Kinase α isoform, fluorescence polarization; read-out: PI3 Kinase α IC50. The method, boiled down: (§1)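 PI3K was preincubated with compound (final DMSO 1%), and the reaction was started with PIP2/ATP substrate and run 30–60 min. It was stopped with a detector mix giving 10 nM red probe and 70 nM GST-GRP.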

Assay [3] addresses T3, PI3K (Homo sapiens, UniProt P48736).
T3 construct: PI3 Kinase γ IC50; other: PI3 Kinase γ; other: PI3 Kinase γ isoform, fluorescence polarization
Briefly: Fluorescence polarization assay for PI3K. The settings on record: PI3 Kinase γ isoform, fluorescence polarization; read-out: PI3 Kinase γ IC50. The assay is classed as biochemical. The gist of the method: as §1
(In fluorescence polarisation assays a small probe gives low polarisation when free and higher when bound to something large.)

Assay [4] has as its system prostate line LNCap. Briefly: In vitro cell culture growth assay (MTS), LNCap. In kind it is cell-based. Particulars: Homo sapiens, LNCaP, 72 h, LNCap cells, three days after drug treatment. The method, boiled down:
(§2)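 Following a one-day attachment period, cells received inhibitors for 3 days. MTS metabolism by viable cells was quantified at 490 nm absorbance and converted to percent of same-plate vehicle control growth.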

Assay [5] has as its system breast line MDA468. Briefly: In vitro cell culture growth assay (MTS), MDA468. The assay is classed as cell-based. The settings on record: Homo sapiens, 72 h, MDA468 cells, three days after drug treatment. The method, boiled down: as §2

Bounds are passed on as bounds.

T3 sequence (P48736 whole entry, canonical isoform): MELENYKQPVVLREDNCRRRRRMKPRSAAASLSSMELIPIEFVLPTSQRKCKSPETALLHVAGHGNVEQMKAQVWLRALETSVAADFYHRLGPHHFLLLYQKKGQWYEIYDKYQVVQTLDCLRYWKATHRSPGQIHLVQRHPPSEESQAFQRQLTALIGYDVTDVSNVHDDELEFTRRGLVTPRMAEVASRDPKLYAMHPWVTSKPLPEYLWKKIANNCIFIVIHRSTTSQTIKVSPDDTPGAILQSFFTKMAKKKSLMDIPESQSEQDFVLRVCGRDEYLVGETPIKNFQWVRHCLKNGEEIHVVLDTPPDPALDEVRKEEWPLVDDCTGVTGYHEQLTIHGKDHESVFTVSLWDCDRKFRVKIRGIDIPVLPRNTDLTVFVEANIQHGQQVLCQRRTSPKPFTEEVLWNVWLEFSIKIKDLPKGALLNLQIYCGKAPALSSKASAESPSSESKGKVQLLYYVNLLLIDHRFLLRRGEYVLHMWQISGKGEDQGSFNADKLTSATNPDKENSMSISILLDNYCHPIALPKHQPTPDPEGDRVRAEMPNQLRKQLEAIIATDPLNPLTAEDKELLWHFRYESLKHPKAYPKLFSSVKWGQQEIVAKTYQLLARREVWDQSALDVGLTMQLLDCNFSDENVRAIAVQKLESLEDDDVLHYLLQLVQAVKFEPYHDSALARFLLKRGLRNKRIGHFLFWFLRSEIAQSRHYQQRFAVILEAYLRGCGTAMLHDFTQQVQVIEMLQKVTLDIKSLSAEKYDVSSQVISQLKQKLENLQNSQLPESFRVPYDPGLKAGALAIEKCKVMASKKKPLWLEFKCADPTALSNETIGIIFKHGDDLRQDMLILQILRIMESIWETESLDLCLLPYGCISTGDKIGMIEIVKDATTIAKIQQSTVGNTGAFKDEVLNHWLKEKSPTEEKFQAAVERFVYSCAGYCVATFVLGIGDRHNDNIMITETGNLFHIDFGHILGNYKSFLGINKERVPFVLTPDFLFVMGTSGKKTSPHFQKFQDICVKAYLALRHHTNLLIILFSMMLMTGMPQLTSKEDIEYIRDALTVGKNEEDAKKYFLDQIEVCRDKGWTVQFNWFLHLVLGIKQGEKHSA

With `COC(=O)N1CCC(n2ncc3c(N4C5CCC4COC5)nc(-c4ccc(NC(=O)Nc5ccc(N6CCN(C)CC6)nc5)cc4)nc32)CC1` [Example 365, methyl 4-{6-[4-({[6-(4-methylpiperazin-1-yl)pyridin-3-yl]carbamoyl}amino)phenyl]-4-(3-oxa-8-azabicyclo[3.2.1]oct-8-yl)-1H-pyrazolo[3,4-d]pyrimidin-1-yl}piperidine-1-carboxylate], the IC50 is 0.795 nM in assay [1]; 2590 nM in assay [2]; 4530 nM in assay [3]; 4 nM in assay [4]; 12 nM in assay [5].
Taken in the same sequence, the figures for `COC(=O)N1CCC(n2ncc3c(N4C5CCC4COC5)nc(-c4ccc(NC(=O)Nc5ccc(CN(C)C)cc5)cc4)nc32)CC1` [Example 366] were 0.795 nM, 2070 nM, 1500 nM, 10 nM and 20 nM.
Taken in the same sequence, the figures for `COC(=O)N1CCC(n2ncc3c(N4C5CCC4COC5)nc(-c4ccc(NC(=O)Nc5ccc(CN6CCN(C)CC6)cc5)cc4)nc32)CC1` [Example 367, methyl 4-[6-{4-[({4-[(4-methylpiperazin-1-yl)methyl]phenyl}carbamoyl)amino]phenyl}-4-(3-oxa-8-azabicyclo[3.2.1]oct-8-yl)-1H-pyrazolo[3,4-d]pyrimidin-1-yl]piperidine-1-carboxylate] were 0.88 nM, 2390 nM, 1820 nM, 1 nM and 13 nM.
The like results for `COC(=O)N1CCC(n2ncc3c(N4C5CCC4COC5)nc(-c4ccc(NC(=O)Nc5ccc(OCCN(C)C)cc5)cc4)nc32)CC1` [Example 368, methyl 4-[6-{4-[({4-[2-(dimethylamino)ethoxy]phenyl}carbamoyl)amino]phenyl}-4-(3-oxa-8-azabicyclo[3.2.1]oct-8-yl)-1H-pyrazolo[3,4-d]pyrimidin-1-yl]piperidine-1-carboxylate] were, in that order, 0.885 nM, 1160 nM, 2000 nM, 1 nM and 4 nM.
With `CN1CCN(C2CCC(n3ncc4c(N5CC6CCC(C5)O6)nc(-c5ccc(NC(=O)OCCO)cc5)nc43)CC2)CC1` (stereo not shown) [Example 369, 2-hydroxyethyl (4-{1-[4-(4-methylpiperazin-1-yl)cyclohexyl]-4-(8-oxa-3-azabicyclo[3.2.1]oct-3-yl)-1H-pyrazolo[3,4-d]pyrimidin-6-yl}phenyl)carbamate], the IC50 was 1.6 nM in assay [1]; 3140 nM in assay [2]; 11900 nM in assay [3]; 220 nM in assay [4]; 750 nM in assay [5].
The like results for `CCNC(=O)Nc1ccc(-c2nc(N3CC4CCC(C3)O4)c3cnn(C4CCC(N5CCN(C)CC5)CC4)c3n2)cc1` (stereo not shown) [Example 370, 1-ethyl-3-(4-{1-[4-(4-methylpiperazin-1-yl)cyclohexyl]-4-(8-oxa-3-azabicyclo[3.2.1]oct-3-yl)-1H-pyrazolo[3,4-d]pyrimidin-6-yl}phenyl)urea] were, in that order, 0.985 nM, 2150 nM, 6510 nM, 130 nM and 400 nM.
As to `CN1CCN(C2CCC(n3ncc4c(N5CC6CCC(C5)O6)nc(-c5ccc(NC(=O)NCCF)cc5)nc43)CC2)CC1` (stereo not shown) [Example 371, 1-(2-fluoroethyl)-3-(4-{1-[4-(4-methylpiperazin-1-yl)cyclohexyl]-4-(8-oxa-3-azabicyclo[3.2.1]oct-3-yl)-1H-pyrazolo[3,4-d]pyrimidin-6-yl}phenyl)urea], the IC50 stood at 1.3 nM in assay [1]; 2490 nM in assay [2]; 8930 nM in assay [3]; 190 nM in assay [4]; 460 nM in assay [5].
The like results for `CN1CCN(C2CCC(n3ncc4c(N5CC6CCC(C5)O6)nc(-c5ccc(NC(=O)NC6CC6)cc5)nc43)CC2)CC1` (stereo not shown) [Example 372, 1-cyclopropyl-3-(4-{1-[4-(4-methylpiperazin-1-yl)cyclohexyl]-4-(8-oxa-3-azabicyclo[3.2.1]oct-3-yl)-1H-pyrazolo[3,4-d]pyrimidin-6-yl}phenyl)urea] were, in that order, 0.395 nM, 2980 nM, 5340 nM, 110 nM and 420 nM.
The like results for `CN1CCN(C2CCC(n3ncc4c(N5CC6CCC(C5)O6)nc(-c5ccc(NC(=O)Nc6ccccc6)cc5)nc43)CC2)CC1` (stereo not shown) [Example 373, 1-(4-{1-[4-(4-methylpiperazin-1-yl)cyclohexyl]-4-(8-oxa-3-azabicyclo[3.2.1]oct-3-yl)-1H-pyrazolo[3,4-d]pyrimidin-6-yl}phenyl)-3-phenylurea] were, in that order, 0.385 nM, 217 nM, 1120 nM, 220 nM and 200 nM.
As to `CCn1ncc2c(N3CC4CCC(C3)O4)nc(-c3ccc(NC(=O)OC)cc3)nc21` [Example 375, methyl {4-[1-ethyl-4-(8-oxa-3-azabicyclo[3.2.1]oct-3-yl)-1H-pyrazolo[3,4-d]pyrimidin-6-yl]phenyl}carbamate], the IC50 in assay [1] is 15.5 nM; in assay [2] it was 4790 nM; in assay [3], greater than 10000 nM; in assay [4] it was 700 nM; in assay [5], 1700 nM.
The like results for `O=C(Nc1ccc(-c2nc(N3CC4CCC(C3)O4)c3cnn(C4CCC5(CC4)OCCO5)c3n2)cc1)Nc1cccnc1` [Example 376, 1-{4-[1-(1,4-dioxaspiro[4.5]dec-8-yl)-4-(8-oxa-3-azabicyclo[3.2.1]oct-3-yl)-1H-pyrazolo[3,4-d]pyrimidin-6-yl]phenyl}-3-pyridin-3-ylurea] were, in that order, 0.125 nM, 270 nM, 4060 nM, 1 nM and 5 nM.
Taken in the same sequence, the figures for `COC(=O)Nc1ccc(-c2nc(N3CC4CCC(C3)O4)c3cnn(C4CCC5(CC4)OCCO5)c3n2)cc1` [Example 377, methyl {4-[1-(1,4-dioxaspiro[4.5]dec-8-yl)-4-(8-oxa-3-azabicyclo[3.2.1]oct-3-yl)-1H-pyrazolo[3,4-d]pyrimidin-6-yl]phenyl}carbamate] were 2.5 nM, 7360 nM, greater than 10000 nM, 140 nM and 1200 nM.
Taken in the same sequence, the figures for `Oc1cccc(-c2nc(N3C4CCC3COC4)c3cnn(-c4ccccc4)c3n2)c1` [Example 378, 3-[4-(3-oxa-8-azabicyclo[3.2.1]oct-8-yl)-1-phenyl-1H-pyrazolo[3,4-d]pyrimidin-6-yl]phenol] were 11.5 nM, 407 nM, 1960 nM, 820 nM and 5800 nM.
With `O=C(Nc1ccc(-c2nc(N3CC4C[C@@H](O)C(C3)O4)c3cnn(CC(F)(F)F)c3n2)cc1)OCCO` (stereo partly drawn) [Example 379, 2-hydroxyethyl (4-{4-[(6R)-6-hydroxy-8-oxa-3-azabicyclo[3.2.1]oct-3-yl]-1-(2,2,2-trifluoroethyl)-1H-pyrazolo[3,4-d]pyrimidin-6-yl}phenyl)carbamate], the IC50 was 245 nM in assay [1]; greater than 10000 nM in assay [2]; greater than 10000 nM in assay [3]; 6800 nM in assay [4]; 5000 nM in assay [5].
Turning to `Oc1cccc(-c2nc(N3C[C@@H]4C[C@H]3CO4)c3cnn(-c4ccccc4)c3n2)c1` [Example 382, 3-{4-[(1S,4S)-2-oxa-5-azabicyclo[2.2.1]hept-5-yl]-1-phenyl-1H-pyrazolo[3,4-d]pyrimidin-6-yl}phenol], the IC50 in assay [1] is 49.5 nM; in assay [2], 1910 nM; in assay [3], 11600 nM; in assay [4] it was 1200 nM; in assay [5], 5500 nM.
As for `CNC(=O)Nc1ccc(-c2nc(N3CC4CCC(C3)O4)c3cnn(C4CCC(OC)CC4)c3n2)cc1` (stereo not shown) [Example 383, 1-{4-[1-(4-methoxycyclohexyl)-4-(8-oxa-3-azabicyclo[3.2.1]oct-3-yl)-1H-pyrazolo[3,4-d]pyrimidin-6-yl]phenyl}-3-methylurea], the IC50 in assay [1] was 0.53 nM; in assay [2], 793 nM; in assay [3], greater than 10000 nM; in assay [4], 7 nM; in assay [5], 30 nM.
Taken in the same sequence, the figures for `COC1CCC(n2ncc3c(N4CC5CCC(C4)O5)nc(-c4ccc(NC(=O)Nc5cccnc5)cc4)nc32)CC1` (stereo not shown) [Example 384, 1-{4-[1-(4-methoxycyclohexyl)-4-(8-oxa-3-azabicyclo[3.2.1]oct-3-yl)-1H-pyrazolo[3,4-d]pyrimidin-6-yl]phenyl}-3-pyridin-3-ylurea] were 0.175 nM, 297 nM, 2170 nM, 2 nM and 22 nM.

The term IC50 denotes the concentration that gives 50% inhibition.
